In patent US9023762B2, “Plant growth regulator compositions, methods of preparation and use thereof” (Valent BioSciences Corporation, priority 2011, dated 2015):

Assays:
[1] = test system: Tomato (variety: Rutgers) plants; assay: Tomato transpiration inhibition study (foliar application); type: in vivo; settings: for Transpiration rate (% of control) Average of 3 days after treatment: foliarly applied to tomato leaves; for S-(+)-Abscisic acid doses to achieve 50% inhibition of transpiration / S-(+)-Abscisic acid dose to achieve 50% inhibition of transpiration: foliar, first 3 days after treatment; for S-(+)-Abscisic acid dose to achieve 50% inhibition of transpiration: log-linear regression; for Relative potency: transpiration inhibition
Description: Efficacy of the preferred composition of the present invention was studied with tomato plants to compare its transpiration inhibition effect against 10% potassium salt of S-(+)-Abscisic acid solution (ABA salt) and technical grade active ingredient of the free acid (S-(+)-Abscisic acid). Tomato (variety: Rutgers) seeds were sown in an 18-cell flat filled with Promix PGX (available from Premier Horticulture Inc. Quakertown, Pa.) for four weeks for germination and initial growth. Plants were then transplanted into pots (18 cm in diameter and 18 cm in height) filled with Promix BX (available from Premier Horticulture Inc. Quakertown, Pa.) and grown for another 5 days before treatment. During growing periods, plants received daily irrigation and weekly fertilizer (1 g/L all purpose fertilizer 20-20-20, The Scotts Company, Marysville, Ohio). S-(+)-Abscisic acid solutions of different, formulations were foliar applied to tomato plant leaves at the rate of 24 mL/6 plants. Plants were then placed in a transparent chamber with humidity controlled at relative humidity 40 to 60%. Leaf transpiration rate was measured 1, 2, 3 or 4 and 7 days after treatment using an AP4 Leaf Porometer (Dynamax, Inc., Houston, Tex.). The transpiration rate of each treatment was calculated as the percentage of that of control at each day to reduce day-to-day variation caused by changes of environmental condition such as light intensity and temperature. The log-linear regression between S-(+)-Abscisic acid doses and the average transpiration rates of first 3 days after treatment was used for calculation of S-(+)-Abscisic acid dose to achieve 50% inhibition of transpiration.

Pansy plants = assay: Pansy shelf life extension study (sprench application); type: in vivo; settings: for Days of extended shelf life / S-(+)-Abscisic acid dose (mg) to extend 1 day of shelf life / S-(+)-Abscisic acid dose (mg) to extend 2 days of shelf life: drench and foliar applied; for S-(+)-Abscisic acid dose to extend 1 day shelf life: drench/foliar applied; for S-(+)-Abscisic acid dose (mg) to extend 1 day of shelf life / S-(+)-Abscisic acid dose (mg) to extend 2 days of shelf life: log-linear regression
Description: Efficacy of the preferred composition of the present invention was also studied with Pansy plants to compare its shelf life extension effect against 10% potassium salt of S-(+)-Abscisic acid solution (ABA salt) and technical grade active ingredient of the free acid (S-(+)-Abscisic acid).
Pansy plants were obtained from local retailers as mature plants. Pansy plants were then transplanted into an 18-cell flat filled with Promix BX (available from Premier Horticulture Inc. Quakertown, Pa.) and grown for 3 days prior to treatment.
Uniform plants were selected for the study. Prior to S-(+)-Abscisic acid treatment, plants were saturated with water and then drained for about two hours. A total of 20 mL S-(+)-Abscisic acid solution, which is equivalent to about 10% of the cell volume, was applied to each plant by soil drench/foliar spray application. In the ornamental industry, this method of chemical application is commonly known as a sprench application. In this study, 17 mL solution was drench applied to root zone and 3 mL solution was foliar applied to canopy. Plants were not watered following the S-(+)-Abscisic acid treatment.
After the S-(+)-Abscisic acid treatment, plants were arranged in a randomized complete block experimental design. The plants were rated daily for the extent of wilting on a scale from 1 for no wilting to 4 for complete wilting. A rating of 2.5 was the point at which a plant was determined to be unmarketable and the previous day was recorded as the shelf life of that plant in days. The log-linear regression between S-(+)-Abscisic acid doses and the extension of shelf life over control plants was used for calculation of S-(+)-Abscisic acid dose to extend 1 day or 2 days of shelf life.

[2] = cited from earlier work
canola seed = assay: Canola emergence after seed treatment (S-ABA as ammonium salt solution, 6-benzyladenine technical powder); type: in vivo; settings: for Final emergence (%) / Qrange / T50: 6-BA 0 g/cwt
Protocol: In this example, the effect of the cytokinin 6-benzyladenine on S-(+)-Abscisic acid induced germination delay on Canola was studied. The experiment was set up as an S-(+)-Abscisic acid-dose×BA-dose factorial experiment, with four doses of S-(+)-Abscisic acid (0, 25, 50, and 100 g/cwt) and four doses of 6-benzyladenine (0, 1, 5 and 25 g/cwt) for a total of 16 treatment combinations. The treatments were made up in 1 ml samples of experimental aqueous seed treatment slurry. S-(+)-Abscisic acid was added in the form of a water solution of the ammonium salt. 6-Benzyladenine was added as technical powder. Ten μl Tween® 20 were added to each sample to help wet and suspend the 6-benzyladenine powder. All of the seed treatment slurry samples contained CP-Clear film-forming agent and Color Coat Red (available from Becker Underwood), each at 1 oz/cwt, and 0.167 oz/cwt Maxim XL fungicide (available from Syngenta). The slurry application volume was 40 oz/cwt (cwt means per 100 lbs or 45.4 kgs of seed). Ten gram samples of canola seed were treated with the experimental slurries using a Hege 11 seed treater with a six-inch bowl.
The seed was planted in plastic boxes containing 1 kg of typical agricultural slit loam. One hundred seeds were planted 2 cm deep in each plastic box, and the soil in the box was adjusted to 21% soil moisture (wet-weight basis). Two replications of the experiment were incubated under constant light in a 10° C. chamber. The soil temperature averaged 12.6° C. The boxes were watered up to the correct weight every 1-2 days, and checked for emergence. Counts of seedlings were continued until it became clear that emergence had ceased (28 days). The final count of emerged seedlings was expressed as a percentage of the 100 seeds planted.
The daily counts were converted to proportions of the final emergence of the box, and a Gompertz curve was fitted to the data from each box using SAS Proc NLIN. From the parameters of the model, median emergence time (T50) and quartile range (Qrange) were estimated for each box. Analysis of variance was performed and means calculated for each of the three responses (Final emergence, T50, Qrange).

[3] = relative to S-(+)-Abscisic acid salt = 1
[4] = relative to S-(+)-Abscisic acid = 1

Compound | Transpiration rate (% of control) Average of 3 days after treatment ([1]; ABA dose 1 mg) | Transpiration rate (% of control) Average of 3 days after treatment ([1]; ABA dose 3 mg) | Transpiration rate (% of control) Average of 3 days after treatment ([1]; ABA dose 10 mg) | S-(+)-Abscisic acid doses to achieve 50% inhibition of transpiration [1] [mg/plant] | S-(+)-Abscisic acid dose to achieve 50% inhibition of transpiration [1] [mg] | Days of extended shelf life (Pansy plants; ABA dose 1 mg) [days] | Days of extended shelf life (Pansy plants; ABA dose 3 mg) [days] | Days of extended shelf life (Pansy plants; ABA dose 10 mg) [days] | Days of extended shelf life (Pansy plants; ABA dose 30 mg) [days] | S-(+)-Abscisic acid dose to extend 1 day shelf life (Pansy plants) [mg/plant] | S-(+)-Abscisic acid dose (mg) to extend 1 day of shelf life (Pansy plants) [mg] | S-(+)-Abscisic acid dose (mg) to extend 2 days of shelf life (Pansy plants) [mg] | also measured
CC1=CC(=O)CC(C)(C)[C@@]1(O)/C=C/C(C)=C\C(=O)[O-].[K+] [S-(+)-Abscisic acid salt] | 70 % of control | 60 % of control | 50 % of control | 10.13 | 10.13 | 0.50 | 1.17 | 1.50 | 1.83 | 2.83 | 2.83 | 39.83 | Relative potency [1, 3]: 1; Relative potency (1 day) (Pansy plants; [3]): 1; Relative potency (2 days) (Pansy plants; [3]): 1
CC1=CC(=O)CC(C)(C)[C@@]1(O)/C=C/C(C)=C\C(=O)O [S-(+)-Abscisic acid] | 73 % of control | 63 % of control | 54 % of control | 15.02 | 15.02 | 0 | 0.67 | 0.83 | 1.67 | 8.68 | 8.68 | 79.62 | Relative potency [1, 4]: 1; Relative potency (2 days) (Pansy plants; [4]): 1; highest concentration that can be achieved in pure water ([2]; pure water at room temperature): about 3000 ppm; solubility limit in the tank-mix ([2]; tank-mix): up to 3000 ppm; final emergence in words (canola seed; S-(+)-Abscisic acid dose of 100 g/cwt): roughly cut in half; Final emergence (%) (canola seed; S-ABA 25 g/cwt): 92.3%; Qrange (canola seed; S-ABA 25 g/cwt): 3.26 days; T50 (canola seed; S-ABA 25 g/cwt): 9.15 days; Final emergence (%) (canola seed; S-ABA 50 g/cwt): 68.9%; Qrange (canola seed; S-ABA 50 g/cwt): 4.27 days; T50 (canola seed; S-ABA 50 g/cwt): 11.20 days; Final emergence (%) (canola seed; S-ABA 100 g/cwt): 53.5%; Qrange (canola seed; S-ABA 100 g/cwt): 4.27 days; T50 (canola seed; S-ABA 100 g/cwt): 12.74 days
